According to US11130741B2 (Bioimics AB, priority 2016, dated 2021):
≈ marks a conversion by molar mass, not a printed value. Read-outs that look alike come from different tables or passages of the source.

Assays:
[1] = test system: E. coli RNase P RNA, M1 RNA; test: Initial inhibition of RNase P activity (normalised cleavage of pATSerUG at maximum compound concentration); type: biochemical; conditions: normalised cleavage (cleavage with compound / without compound)
[2] = test system: Staphylococcus aureus (ATCC25923); test: MIC, broth microdilution (CLSI), Staphylococcus aureus ATCC25923; conditions: ATCC25923, read-out: S. aureus ("Clinical") MIC
[3] = test system: Escherichia coli (ATCC25922); test: MIC, broth microdilution (CLSI), Escherichia coli ATCC25922
[4] = test system: E. coli RNase P RNA, M1 RNA; test: Inhibition of bacterial RNase P activity, IC50 determination (cleavage of pATSerUG by M1 RNA); type: biochemical; conditions: NI = No inhibition
E. faecium ATCC 700221 = test: MIC, E. faecium ATCC 700221; type: cell-based; conditions: Enterococcus faecium, ATCC700221; read-out: MIC E. faecium ATCC 700221
[5] = test system: S. aureus MRSA ATCC 33591; test: MIC, S. aureus MRSA ATCC 33591; type: cell-based; conditions: Staphylococcus aureus; read-out: MIC S. aureus MRSA ATCC 33591
S. aureus ATCC 29213 = test: MIC, S. aureus ATCC 29213 + 50% HS; type: cell-based; conditions: Staphylococcus aureus, ATCC29213
[6] = test system: Pseudomonas aeruginosa (ATCC27853); test: microbe, parasite or virus in culture; type: cell-based; conditions: read-out: MIC P. aeruginosa ATCC 27853
K. pneumoniae ATCC 43816 = test: MIC, K. pneumoniae ATCC 43816; type: cell-based; conditions: Klebsiella pneumoniae, ATCC43816
[7] = test system: S. aureus USA300 MRSA BAA 1717; test: MIC, S. aureus USA300 MRSA BAA 1717; type: cell-based; conditions: Staphylococcus aureus
[8] = test system: Enterococcus faecalis (ATCC29212); test: MIC, broth microdilution (CLSI), Enterococcus faecalis ATCC29212; type: cell-based; conditions: read-out: MIC E. faecalis ATCC 29212
H. pylori ATCC 43504 = test: MIC, H. pylori ATCC 43504; type: cell-based; conditions: Helicobacter pylori, ATCC43504
E. coli JW5503 = test: MIC, E. coli JW5503; type: cell-based; conditions: Escherichia coli, JW5503, read-out: MIC E. coli JW5503
H. influenzae ATCC 49247 = test: MIC, H. influenzae ATCC 49247; type: cell-based; conditions: Haemophilus influenzae, ATCC49247
[9] = test system: P. aeruginosa NTUH-974 (MDR); test: MIC, P. aeruginosa NTUH-974 (MDR); type: cell-based; conditions: Pseudomonas aeruginosa; read-out: MIC P. aeruginosa NTUH-974 (MDR)
M. phlei ATCC 11758 = test: MIC, M. phlei ATCC 11758; type: cell-based; conditions: Mycolicibacterium phlei, ATCC11758
N. gonorrhoeae 612501 = test: MIC, N. gonorrhoeae 612501; type: cell-based; conditions: Neisseria gonorrhoeae
A. baumannii ATCC 17978 = test: MIC, A. baumannii ATCC 17978; type: cell-based; conditions: Acinetobacter baumannii, ATCC17978
[10] = test system: Staphylococcus aureus subsp. aureus (ATCC29213); test: MIC, broth microdilution (CLSI), Staphylococcus aureus subsp. aureus ATCC29213; type: cell-based
M. fortuitum ATCC 110 = test: MIC, M. fortuitum ATCC 110; type: cell-based; conditions: Mycolicibacterium fortuitum, ATCC110
S. pneumoniae ATCC 49619 = test: MIC, S. pneumoniae ATCC 49619; type: cell-based; conditions: Streptococcus pneumoniae, ATCC49619
[11] = ATCC25922, read-out: E. coli MIC, Table 15, NI = No inhibition
[12] = ATCC25922, read-out: MIC E. coli ATCC 25922, Table 16
[13] = ATCC29213, Table 15, read-out: S. aureus ("wound") (MIC)
[14] = ATCC29213, Table 16, read-out: MIC S. aureus ATCC 29213

SMILES	MIC [3, 11] [µg/mL]	IC50 [4] [µM]	MIC (E. faecium ATCC 700221) [µg/mL]	MIC [5] [µg/mL]	MIC (S. aureus ATCC 29213) [µg/mL]	MIC [6] [µg/mL]	MIC (K. pneumoniae ATCC 43816) [µg/mL]	MIC [7] [µg/mL]	MIC [8] [µg/mL]	MIC (H. pylori ATCC 43504) [µg/mL]	MIC (E. coli JW5503) [µg/mL]	MIC (H. influenzae ATCC 49247) [µg/mL]	MIC [9] [µg/mL]	MIC [3, 12] [µg/mL]	MIC (M. phlei ATCC 11758) [µg/mL]	MIC (N. gonorrhoeae 612501) [µg/mL]	MIC (A. baumannii ATCC 17978) [µg/mL]	MIC [10, 13] [µg/mL]	MIC [10, 14] [µg/mL]	MIC (M. fortuitum ATCC 110) [µg/mL]	other results
Nc1cc(C(F)(F)F)cc2c1Nc1ccccc1S2 [compound 2, 3-(trifluoromethyl)-10H-phenothiazin-1-amine]	> 100																				Normalised RNase P cleavage (fraction of control) ([1]; at 8 μM): 0.42; Normalised RNase P cleavage (fraction of control) ([1]; at 10 μM): 0.84; MIC [2]: 4 µg/mL (≈ 14.2 µM)
NCCC(=O)Nc1cc(C(F)(F)F)cc2c1Nc1ccccc1S2 [compound 30, 3-amino-N-(3-(trifluoromethyl)-10H-phenothiazin-1-yl)propanamide]	16 (≈ 45.3 µM)	> 100																			Normalised RNase P cleavage (fraction of control) ([1]; at 8 μM): 0.49; MIC [2]: 8 µg/mL (≈ 22.6 µM)
C=CC(=O)N(CCCN(C)C)c1cc(C(F)(F)F)cc2c1Nc1ccccc1S2 [compound 39, N-(3-(dimethylamino)propyl)-N-(3-(trifluoromethyl)-10H-phenothiazin-1-yl)acrylamide]	> 100	76																			Normalised RNase P cleavage (fraction of control) ([1]; at 8 μM): 0.58; MIC [2]: 27 µg/mL (≈ 64.1 µM)
CN(C)CCCN1c2ccccc2Sc2cc(C(F)(F)F)cc(N)c21 [compound 42, 10-(3-(dimethylamino)propyl)-3-(trifluoromethyl)-10H-phenothiazin-1-amine]	> 100																				Normalised RNase P cleavage (fraction of control) ([1]; at 8 μM): 1.02; MIC [2]: 47 µg/mL (≈ 128 µM)
C[C@@H](N)CC(=O)Nc1cc(C(F)(F)F)cc2c1Nc1ccccc1S2 [compound 67, (R)-3-amino-N-(3-(trifluoromethyl)-10H-phenothiazin-1-yl)butanamide]	13 (≈ 35.4 µM)	> 100																			Normalised RNase P cleavage (fraction of control) ([1]; at 8 μM): 0.19; MIC [2]: 13 µg/mL (≈ 35.4 µM)
Cl.Cl.NCCN1CCC(Nc2cc(C(F)(F)F)cc3c2Nc2ccc(N4CCCC4)cc2S3)CC1 [compound 284, N-(1-(2-aminoethyl)piperidin-4-yl)-7-(pyrrolidin-1-yl)-3-(trifluoromethyl)-10H-phenothiazin-1-amine hydrochloride]	8	0.89	2	2	32	32	4	2	2	32	4	8	32	4	4	2	8	2	2	8	MIC (S. pneumoniae ATCC 49619): 8 µg/mL
Cl.NC1CCCC(CNc2cc(C(F)(F)F)cc3c2Nc2ccc(N4CCCC4)cc2S3)C1 (stereo not shown) [compound 300, N-((3-aminocyclohexyl)methyl)-7-(pyrrolidin-1-yl)-3-(trifluoromethyl)-10H-phenothiazin-1-amine]	16	1.9	1	1	16	> 32	8	1	1	16	2	2	> 32	4	4	1	8	1	1	2	MIC (S. pneumoniae ATCC 49619): 4 µg/mL
CC1CCCN(c2ccc3c(c2)Sc2cc(C(F)(F)F)cc(NC4CCN(CCN)CC4)c2N3)C1.Cl.Cl (stereo not shown) [compound 301, N-(1-(2-aminoethyl)piperidin-4-yl)-7-(3-methyl-piperidin-1-yl)-3-(trifluoromethyl)-10H-phenothiazin-1-amine hydrochloride]	4	27	2	2	16	16	4	2	2	8	2	2	16	4	8	1	4	2	4	4	MIC (S. pneumoniae ATCC 49619): 4 µg/mL
Cl.Cl.NCCNCCC(=O)Nc1cc(C(F)(F)F)cc2c1Nc1ccc(N3CCCC3)cc1S2 [compound 302, 3-((2-aminoethyl)amino)-N-(7-(pyrrolidin-1-yl)-3-(trifluoromethyl)-10H-phenothiazin-1-yl)propanamide hydrochloride]	128	3.6	4	8	64	32	16	8	8	32	16	16	32	16	16	8	32	32	8	8	MIC (S. pneumoniae ATCC 49619): 64 µg/mL
CC1(C)CCCN(c2ccc3c(c2)Sc2cc(C(F)(F)F)cc(NC4CCN(CCN)CC4)c2N3)C1.Cl.Cl [compound 305, N-(1-(2-aminoethyl)piperidin-4-yl)-7-(3,3-dimethyl-piperidin-1-yl)-3-(trifluoromethyl)-10H-phenothiazin-1-amine hydrochloride]	4	2.9	1	1	32	16	4	1	1	16	4	1	16	4	2	1	4	2	1	4	MIC (S. pneumoniae ATCC 49619): 2 µg/mL
CCN(CC)c1ccc2c(c1)Sc1cc(C(F)(F)F)cc(NC3CCN(CCN)CC3)c1N2.Cl.Cl.Cl [compound 306, N1-(1-(2-aminoethyl)piperidin-4-yl)-N7,N7-diethyl-3-(trifluoromethyl)-10H-phenothiazine-1,7-diamine hydrochloride]	4	50	2	2	8	32	4	2	4	32	2	8	32	4	8	2	8	2	2	4	MIC (S. pneumoniae ATCC 49619): 4 µg/mL
CC1CCN(c2ccc3c(c2)Sc2cc(C(F)(F)F)cc(NC4CCN(CCN)CC4)c2N3)CC1.Cl.Cl [compound 307, N-(1-(2-aminoethyl)piperidin-4-yl)-7-(4-methyl-piperidin-1-yl)-3-(trifluoromethyl)-10H-phenothiazin-1-amine hydrochloride]	4	16	2	2	32	16	4	2	2	16	2	2	16	4	8	1	8	2	2	4	MIC (S. pneumoniae ATCC 49619): 8 µg/mL
